Reference: PMC8557901 (Microbiology Spectrum, 2021)

Assays:
[1] = test system: P. falciparum strain NF54 gametocytes; assay: In vitro gametocyte induction and development assays; assay type: cell-based, Plasmodium falciparum
Method: To produce gametocytes, P. falciparum strain NF54 was cultured in vitro as described by Trager and Jensen ([46]) with minor modifications. Briefly, parasites were maintained in human type O-positive red blood cells (RBC) at 5% hematocrit (HCT) in RPMI 1640 medium supplemented with 10% heat-inactivated human serum, 10 mM hypoxanthine, 20 μg/ml gentamicin, The cultures were maintained at 37°C in a standard gas mixture of 5% O2, 5% CO2, 90% N2. Synchronous production of gametocytes was achieved as previously described ([47]). Briefly, asexual parasite cultures were synchronized by purifying schizonts with MACS cell separation columns (Miltenyi Biotec) and using them to reinvade erythrocytes. When parasitemia reached 10 to 15% rings, culture medium was supplemented with 50 mM N-acetylglucosamine (NAG; Sigma-Aldrich) for 5 days in order to clear residual asexual parasites and obtain a virtually pure gametocyte culture.
To assess the effect of gamhepathiopine on the induction of gametocytes, M1 (10 μM) was added at the same moment with NAG. For gametocyte development, gamhepathiopine was added 2 days after the addition of NAG. Medium replacement was performed every day. All cultures were prepared in parallel with controls corresponding to cultures that were treated with 0.1% DMSO. The percentages of each stage of gametocytes in cultures were assessed by microscopy of Giemsa-stained thin blood smears.
Figure S2. Protocol of in vitro gametocytocidal activity assays (NAG = N-acetylglucosamine). Gametocytes stages: I, II, III, IV and V. In blue: M1 effect on gametocyte induction: M1 (10 µM) added at D0 on asexual stage before induction with NAG (control= NAG+ DMSO). In green: M1 effect on gametocyte development: M1 (10 µM) added at D3 after induction (Control= DMSO). In red: M1 effect on exflagellation of mature male gametocytes on D10 (Control DMSO)

[2] = test system: P. falciparum mature gametocytes (stage V); assay: Exflagellation-blocking assay; assay type: cell-based, Plasmodium falciparum; details: 10 μM, 24 h preincubation of stage V gametocytes
Method: Exflagellation-blocking assays were performed according to published protocols ([48], [49]). Assays were performed using gametocyte cultures providing high-enough numbers of exflagellation centers for meaningful measurement (>30 centers of exflagellation in 50 microscope fields at 400× magnification). […] The 6-well plate was incubated at 37°C. After treatment with M1 during 2 h or 24 h, exflagellation was induced by decreasing the temperature to 25°C and replacing culture medium with AB serum. The numbers of exflagellation centers were recorded between 10 and 30 min after induction and compared to the numbers in the control (DMSO treatment). Activity was expressed as the percentage of exflagellation inhibition compared to the control.

[3] = test system: P. falciparum F32-ART5 (artemisinin-resistant); assay: Standard in vitro chemosensitivity assay (hypoxanthine uptake), F32-ART5; assay type: cell-based; details: Plasmodium falciparum, F32, 48 h, read-out: Mean EC50 ± SD
Method: (§1) The Plasmodium falciparum artemisinin-resistant strain F32-ART5 and its twin artemisinin-sensitive line F32-TEM ([30], [31]) were cultivated at 37°C with 5% CO2 in human red blood cells (EFS [French Blood Bank]) diluted to 2% hematocrit in RPMI 1640 medium supplemented with 5% human serum (EFS) as previously reported ([47]).
In vitro susceptibility of P. falciparum parasites was determined by using the standard hypoxanthine uptake inhibition assay as described previously ([51]) with some modifications ([52]). After D-sorbitol treatment, parasites synchronized at the ring stage were exposed for 48 h, with [^3H]hypoxanthine (Perkin Elmer, France), to a range of concentrations of the different tested compounds. […] Each result represents 3 independent experiments.

[4] = test system: P. falciparum F32-ART5 quiescent parasites; assay: Quiescent-stage survival assay (QSA); assay type: cell-based, Plasmodium falciparum; details: artemisinin 3 μM 6 h then artemisinin + M1 2.5 μM 24 h versus artemisinin alone; 6-day threshold = active
Method: as §1
Chemosensitivity evaluation of artemisinin-resistant parasites at the quiescent stage was performed on the F32-ART5 strain using the quiescent-stage survival assay (QSA) ([33]). D-Sorbitol-synchronized ring-stage parasites at 3% parasitemia (2% hematocrit) were first exposed to 3 μM artemisinin for 6 h to induce quiescence of artemisinin-resistant parasites. Then, quiescent parasites were exposed or not (as a control condition) to 2.5 μM M1 for 24 h. After drug exposure, parasite cultures were washed with RPMI 1640 medium and replaced in normal drug-free culture conditions. The time to parasite recrudescence was determined as the time required to reach initial parasitemia. […] In each experiment, results obtained with the condition “artemisinin 3 μM 6 h/artemisinin 3 μM 24 h” were compared to those obtained with the condition “artemisinin 3 μM 6 h/(artemisinin 3 μM + M1 2.5 μM) 24 h” in order to determine the delay in recrudescence time. […] Each experiment was carried out three times independently, and data statistically analyzed. […]

[5] = Cytotoxicity on the MDCK renal cell line (MTT); assay type: cell-based, canine; details: dog, MDCK cells
Method: MDCK cell line (Madin-Darby Canine Kidney cells) was maintained at 37 °C, 5% CO2 with 90% humidity in DMEM supplemented with 5% fetal bovine serum, 1% L-glutamine (200 mM), penicillin (100 U/mL) and streptomycin (100 μg/mL) (complete medium). The evaluation of Gamhepathiopine cytotoxicity on this cell line was performed according to the method of Mosman with slight modifications. Briefly, 3.10^4 cells in 100 μL of complete medium were inoculated into each well of 96-well plates and incubated at 37 °C in a humidified 5% CO2. After 24 h incubation, to obtain adherent cells, 100 μL of medium with various concentrations of Gamhepathipoine dissolved in DMSO were added and refreshed on a daily basis for 72 h at 37 °C. Each sample was tested on 4 technical replicates. The MTT solution (100µL/well, 0.5 mg/mL in medium without FBS) was then added to each well. Cells were incubated for 4 h at 37 °C. The MTT solution was then removed and a mixture of DMSO/Ethanol (1:1; 100 μL/well) was added to dissolve the resulting blue formazan crystals. The absorbance was measured at 540 nm on a Flex Station Microplate Reader.

[6] = test system: P. yoelii in HepG2-CD81 cells; design: method as in PMID 25791675; details: liver stage of Plasmodium yoelii infecting HepG2-CD81 cells; cited from earlier work
[7] = test system: HepG2 or CHO cell lines; design: method as in PMID 25791675; details: cited from earlier work

With Cc1ccc(-c2cc3nc(NC(C)(C)C)[nH]c(=O)c3s2)cc1 [Metabolite M1, 2-(tert-Butylamino)-6-(p-tolyl)thieno[3,2-d]pyrimidin-4(3H)-one] the “stage III gametocytes mean value” ([1]; 10 μM added after induction, day 6 postinduction, control 1.29) was 0.48, the “stage V gametocytes mean value” ([1]; 10 μM added after induction, day 10 postinduction, control 0.70) was 0.26 and the “reduction of the conversion rate of asexual parasites into gametocytes” value ([1]; 10 μM added at D0 with NAG, renewed every day) was 87.8%. The “mean percentage for male exflagellation” value [2] was 7.5%, the EC50 [3] was 227 ± 40 nM and the “median delay in recrudescence time” value [4] was 6 days. The CC50 at 72 h [5] was 39500 nM, the EC50 [6] was 35 nM and the CC50 [7] was no less than 25000 nM.
